Test results: article PMC9415638, “Discovery of novel thiazolyl-pyrazolines as dual EGFR and VEGFR-2 inhibitors endowed with in vitro antitumor activity towards non-small lung cancer” (Journal of Enzyme Inhibition and Medicinal Chemistry, 2022)

How the values were obtained:
A549 lung cancer cells = assay: Anti-proliferative MTT assay; conditions: Homo sapiens, A549, 24 h; for inhibition at 10 µM: read-out: % Growth inhibition ± SEM A549; for IC50: read-out: IC50 (µM) ± SEM A549
EGFR = EGFR (Homo sapiens, UniProt P00533); assay: EGFR kinase assay (PGT-coated 96-well plates); format: biochemical; conditions: read-out: IC50 (nM) ± SEM EGFR
Experimental: (§1) The EGFR kinase assay was carried out in 96-well plates coated with PGT (poly l-glutamic acid l-tyrosine, 4:1, Sigma Aldrich, St. Louis, MO) as previously described. IC50 values were calculated using GraphPad Prism 5. Each experiment was carried out at least three times. The VEGFR-2 kinase assay was carried out in 96-well streptavidin coated plate using recombinant human VEGFR-2/KDR ELISA kit according to manufacturer’s instructions.

[1] = molecular target: T1, recombinant human VEGFR-2/KDR (Homo sapiens, UniProt P35968); assay: VEGFR-2 kinase assay (VEGFR-2/KDR ELISA kit); format: biochemical; conditions: read-out: IC50 (nM) ± SEM VEGFR-2
T1 construct: purchased
Experimental: as §1

[2] = test system: WI-38 human lung fibroblast cells; assay: MTT cytotoxicity assay on normal cells; format: cell-based; conditions: Homo sapiens, WI-38; normal lung fibroblasts, MTT, 24 h, n = 3; read-out: IC50 (µM) ± SEM WI-38
Experimental: All chemicals used in this study were analytical or cell-culture grade.
Cytotoxicity was measured using the MTT assay. […] The medium was aspirated and 150 μL DMSO was added to solubilise MTT formazan crystals. The plates were then shaken, and the optical density was determined at 570 nm using an ELISA plate reader (Model 550, Bio-Rad, Hercules, CA). At least three independent experiments were performed.

H441 lung cancer cells = assay: Anti-proliferative MTT assay; conditions: Homo sapiens, NCI-H441, 24 h; for inhibition at 10 µM: read-out: % Growth inhibition ± SEM H441; for IC50: read-out: IC50 (µM) ± SEM H441, MTT, 24 h, n = 3
KG-1a leukaemia cells = assay: Anti-proliferative MTT assay; format: cell-based; conditions: Homo sapiens, 24 h, read-out: % Growth inhibition ± SEM KG-1a
Experimental: (§2) To evaluate the anti-proliferative activity of the synthesised thiazolyl-pyrazoline derivatives (7a–7d, 10a–10d, and 13a–13f), a preliminary in vitro one dose (10 µM) anticancer assay was performed. Nine cell lines derived from five tumour subpanels were examined; leukaemia (K562 and KG-1a), breast (MCF-7, BT-549 and HCC70), lung (A549 and H441), colon (HCT116) and liver (HepG2) cancer cell lines. The compounds were added at a single concentration (10 µM) and the cultures were incubated for 24 h, then the per cent growth inhibition (%GI) was calculated.
(§3) Human leukaemia (K562 and KG-1a), breast (MCF-7, BT-549 and HCC70), lung (A549, H441, NCI-H1650 and NCI-H1975), colon (HCT116), liver (HepG2) cancer cell lines and WI-38 human lung fibroblast cell line were obtained from the American Type Culture Collection (ATCC; Manassas, VA) and were cultured in their suitable media containing 10% foetal bovine serum (FBS; Sigma-Aldrich) in a humidified atmosphere with 5% CO2 at 37 °C. Gefitinib and vandetanib were purchased from Sigma-Aldrich. All chemicals used in this study were analytical or cell-culture grade.
(§4) Cytotoxicity was measured using the MTT assay. Human leukaemia (K562 and KG-1a), breast (MCF-7, BT-549 and HCC70), lung (A549, H441, NCI-H1650 and NCI-H1975), colon (HCT116), liver (HepG2) cancer cell lines and WI-38 human lung fibroblast cell line were plated at a density of 1 × 10^4 cells per well in 96-well plates overnight and then treated with the compounds. After 24 h treatment, 20 μL of MTT solution (2 mg/mL in phosphate-buffered saline [PBS]) was added to each well and the cells were cultured for another 4 h at 37 °C. The medium was aspirated and 150 μL DMSO was added to solubilise MTT formazan crystals. The plates were then shaken, and the optical density was determined at 570 nm using an ELISA plate reader (Model 550, Bio-Rad, Hercules, CA). At least three independent experiments were performed. The IC50 values were calculated using GraphPad Prism 5 (Version 5.01, GraphPad Software, San Diego, CA).

[3] = test system: BT-549 breast cancer cells; assay: Anti-proliferative MTT assay; format: cell-based; conditions: Homo sapiens, 24 h, read-out: % Growth inhibition ± SEM BT-549
Experimental: as §2, §3, §4

[4] = test system: MCF-7 breast cancer cells; assay: Anti-proliferative MTT assay; format: cell-based; conditions: Homo sapiens, MCF7, 24 h, read-out: % Growth inhibition ± SEM MCF-7
Experimental: as §2, §3, §4

HepG2 liver cancer cells = assay: Anti-proliferative MTT assay; format: cell-based; conditions: Homo sapiens, 24 h, read-out: % Growth inhibition ± SEM HepG2
Experimental: as §2, §3, §4

[5] = test system: HCC70 breast cancer cells; assay: Anti-proliferative MTT assay; format: cell-based; conditions: Homo sapiens, 24 h, read-out: % Growth inhibition ± SEM HCC70
Experimental: as §2, §3, §4

K562 leukaemia cells = assay: Anti-proliferative MTT assay; format: cell-based; conditions: Homo sapiens, 24 h, read-out: % Growth inhibition ± SEM K562
Experimental: as §2, §3, §4

[6] = test system: HCT116 colon cancer cells; assay: Anti-proliferative MTT assay; format: cell-based; conditions: Homo sapiens, HCT-116, 24 h, read-out: % Growth inhibition ± SEM HCT116
Experimental: as §2, §3, §4

VEGFR-2 = test system: VEGFR-2; parameters: method as in PMID 30641320; conditions: Figure 2; cited from earlier work
A549 cells = assay: Cell cycle analysis by flow cytometry (7AAD); format: cell-based, human; conditions: A549, 20 µM, 24 h
Experimental: Figure 6. […] (A) Representative cell cycle distribution data are shown by flow cytometric analysis upon incubation with 0 (control), 2.5 or 5 μM of 10b or 10d or with 0 (control), 5 or 20 μM of gefitinib for 24 h. (B) Quantification of cell cycle distribution upon 24 h incubation with 10b or 10d.
DNA content was measured using 7-aminoactinmycin D (7AAD) (Biotium, Inc., Hayward, CA) staining and is commonly used for cell cycle phase analysis as previously described. Apoptosis was evaluated using the annexin V/propidium iodide (PI) staining kit (BioLegend, San Diego, CA) according to the manufacturer’s instructions and as previously described.

T1 sequence (P35968 20-1356): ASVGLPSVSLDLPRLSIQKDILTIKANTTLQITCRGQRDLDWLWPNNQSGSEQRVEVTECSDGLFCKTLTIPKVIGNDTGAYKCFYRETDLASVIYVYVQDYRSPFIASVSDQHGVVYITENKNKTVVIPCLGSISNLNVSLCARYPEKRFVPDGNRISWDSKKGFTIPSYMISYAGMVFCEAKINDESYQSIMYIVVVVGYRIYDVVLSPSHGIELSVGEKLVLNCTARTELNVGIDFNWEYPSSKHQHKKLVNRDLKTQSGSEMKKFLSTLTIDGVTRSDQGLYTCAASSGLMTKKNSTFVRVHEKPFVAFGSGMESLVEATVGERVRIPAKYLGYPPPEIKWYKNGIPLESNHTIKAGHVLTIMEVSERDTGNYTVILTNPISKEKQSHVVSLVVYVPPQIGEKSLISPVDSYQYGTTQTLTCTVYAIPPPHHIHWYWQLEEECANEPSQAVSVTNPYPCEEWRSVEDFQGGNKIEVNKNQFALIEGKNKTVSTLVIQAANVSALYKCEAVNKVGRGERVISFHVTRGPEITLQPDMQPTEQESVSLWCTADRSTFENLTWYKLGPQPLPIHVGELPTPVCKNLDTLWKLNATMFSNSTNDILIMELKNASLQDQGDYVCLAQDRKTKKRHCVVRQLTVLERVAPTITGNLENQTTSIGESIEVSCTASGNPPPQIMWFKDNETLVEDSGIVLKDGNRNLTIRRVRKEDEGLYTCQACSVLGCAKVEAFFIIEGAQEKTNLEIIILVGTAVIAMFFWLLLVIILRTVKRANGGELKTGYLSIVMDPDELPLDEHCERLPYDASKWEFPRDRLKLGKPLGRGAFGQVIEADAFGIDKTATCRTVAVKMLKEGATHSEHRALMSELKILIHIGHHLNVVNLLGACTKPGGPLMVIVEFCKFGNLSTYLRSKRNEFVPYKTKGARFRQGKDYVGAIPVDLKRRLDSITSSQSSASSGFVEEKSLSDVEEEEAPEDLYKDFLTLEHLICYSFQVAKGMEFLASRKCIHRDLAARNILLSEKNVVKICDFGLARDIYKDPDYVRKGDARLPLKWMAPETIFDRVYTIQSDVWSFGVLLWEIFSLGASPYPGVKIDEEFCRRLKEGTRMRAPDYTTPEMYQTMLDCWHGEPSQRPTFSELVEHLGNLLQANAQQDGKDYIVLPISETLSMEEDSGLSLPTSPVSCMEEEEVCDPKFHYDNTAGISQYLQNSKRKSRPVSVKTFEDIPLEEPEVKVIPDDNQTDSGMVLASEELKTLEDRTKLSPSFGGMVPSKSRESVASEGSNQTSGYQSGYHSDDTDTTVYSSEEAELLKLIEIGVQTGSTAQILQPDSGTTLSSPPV
Chain of EGFR (P00533 25-1210): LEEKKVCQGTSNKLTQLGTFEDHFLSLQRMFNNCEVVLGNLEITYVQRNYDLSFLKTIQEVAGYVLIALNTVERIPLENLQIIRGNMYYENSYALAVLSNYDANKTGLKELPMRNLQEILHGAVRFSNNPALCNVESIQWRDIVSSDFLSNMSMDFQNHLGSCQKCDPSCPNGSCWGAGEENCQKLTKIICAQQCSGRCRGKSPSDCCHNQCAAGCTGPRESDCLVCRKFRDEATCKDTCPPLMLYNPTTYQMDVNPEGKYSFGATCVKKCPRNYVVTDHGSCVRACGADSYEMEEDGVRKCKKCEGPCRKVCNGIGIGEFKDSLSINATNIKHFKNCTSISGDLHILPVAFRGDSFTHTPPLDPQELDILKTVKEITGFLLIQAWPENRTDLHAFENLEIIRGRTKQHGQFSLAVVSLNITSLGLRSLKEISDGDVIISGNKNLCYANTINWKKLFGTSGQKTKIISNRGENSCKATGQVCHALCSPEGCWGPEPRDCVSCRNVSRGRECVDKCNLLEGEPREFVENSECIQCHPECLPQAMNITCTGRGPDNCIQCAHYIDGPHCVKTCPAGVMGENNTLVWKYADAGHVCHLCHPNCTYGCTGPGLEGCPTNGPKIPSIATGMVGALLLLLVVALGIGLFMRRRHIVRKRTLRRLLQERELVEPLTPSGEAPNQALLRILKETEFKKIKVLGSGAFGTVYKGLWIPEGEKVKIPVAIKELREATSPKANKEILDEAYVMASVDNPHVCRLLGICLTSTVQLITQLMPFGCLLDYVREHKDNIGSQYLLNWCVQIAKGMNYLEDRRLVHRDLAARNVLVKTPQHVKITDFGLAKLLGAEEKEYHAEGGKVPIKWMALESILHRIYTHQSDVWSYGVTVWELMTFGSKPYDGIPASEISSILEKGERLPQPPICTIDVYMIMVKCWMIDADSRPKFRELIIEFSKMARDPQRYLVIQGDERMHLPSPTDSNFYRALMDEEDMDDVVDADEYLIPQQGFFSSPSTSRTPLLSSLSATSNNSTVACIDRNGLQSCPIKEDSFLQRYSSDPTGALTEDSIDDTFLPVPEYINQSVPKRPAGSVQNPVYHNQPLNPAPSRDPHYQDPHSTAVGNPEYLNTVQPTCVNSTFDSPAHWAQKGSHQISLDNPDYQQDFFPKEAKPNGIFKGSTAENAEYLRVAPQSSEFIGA

SMILES: COc1ccc(C2CC(c3ccc(Cl)cc3Cl)=NN2c2nc(C)c(N=Nc3ccc(C)cc3)s2)cc1 (centres unmarked) [Compound 13b, 2-(3-(2,4-Dichlorophenyl)-5-(4-methoxyphenyl)-4,5-dihydro-1H-pyrazol-1-yl)-4-methyl-5-(p-tolyldiazenyl)thiazole]
- inhibition at 10 µM (A549 lung cancer cells): 16.2 ± 1.3%
- IC50 (A549 lung cancer cells): 59.1 ± 3.2 µM
- melting point: 170 to 171 °C
- IC50 (EGFR): 179 nM
- IC50 [1]: 214 ± 4 nM
- IC50 [2]: > 100 µM
- inhibition at 10 µM (H441 lung cancer cells): 23.3 ± 2.4%
- IC50 (H441 lung cancer cells): 24.2 ± 1.8 µM
- inhibition at 10 µM (KG-1a leukaemia cells): 7.1 ± 0.2%
- inhibition at 10 µM [3]: 5.1 ± 0.3%
- inhibition at 10 µM [4]: 3.4 ± 0.5%
- inhibition at 10 µM (HepG2 liver cancer cells): 0.08%
- inhibition at 10 µM [5]: 8.3 ± 0.9%
- inhibition at 10 µM (K562 leukaemia cells): 11 ± 0.6%
- inhibition at 10 µM [6]: 0.8 ± 0.2%

SMILES: COc1ccc(C2CC(c3ccc(Cl)cc3Cl)=NN2c2nc(C)c(N=Nc3ccc(Cl)cc3)s2)cc1 (centres unmarked) [Compound 13c, 5-((4-Chlorophenyl)diazenyl)-2-(3-(2,4-dichlorophenyl)-5-(4-methoxyphenyl)-4,5-dihydro-1H-pyrazol-1-yl)-4-methylthiazole]
- inhibition at 10 µM (A549 lung cancer cells): 14.8 ± 1%
- IC50 (A549 lung cancer cells): 46.3 ± 2.5 µM
- melting point: 170 to 171 °C
- IC50 (EGFR): 134 ± 1.5 nM
- IC50 [1]: 173 ± 2.6 nM
- IC50 [2]: 91.4 ± 8.9 µM
- inhibition at 10 µM (H441 lung cancer cells): 19.9 ± 1.7%
- IC50 (H441 lung cancer cells): 33.5 ± 3.9 µM
- inhibition at 10 µM (KG-1a leukaemia cells): 12.4 ± 1.6%
- inhibition at 10 µM [3]: 8.7 ± 1.9%
- inhibition at 10 µM [4]: 10.4 ± 2.9%
- inhibition at 10 µM (HepG2 liver cancer cells): 14.2 ± 1%
- inhibition at 10 µM [5]: 1.1 ± 0.1%
- inhibition at 10 µM (K562 leukaemia cells): 5.2 ± 0.9%
- inhibition at 10 µM [6]: 8.7 ± 0.6%

SMILES: COc1ccc(C2CC(c3ccc(Cl)cc3Cl)=NN2c2nc(C)c(N=Nc3ccccc3)s2)cc1OC (centres unmarked) [Compound 13d, 2-(3-(2,4-Dichlorophenyl)-5-(3,4-dimethoxyphenyl)-4,5-dihydro-1H-pyrazol-1-yl)-4-methyl-5-(phenyldiazenyl)thiazole]
- inhibition at 10 µM (A549 lung cancer cells): 12.6 ± 2.7%
- IC50 (A549 lung cancer cells): 57.1 ± 4.1 µM
- melting point: 187 to 188 °C
- IC50 (EGFR): 93.6 ± 3 nM
- IC50 [1]: 336 ± 6.3 nM
- IC50 [2]: 64.2 ± 2.8 µM
- inhibition at 10 µM (H441 lung cancer cells): 38.9 ± 2.4%
- IC50 (H441 lung cancer cells): 21.7 ± 1.3 µM
- inhibition at 10 µM (KG-1a leukaemia cells): 24.1 ± 2.7%
- inhibition at 10 µM [3]: 14.2 ± 2.2%
- inhibition at 10 µM [4]: 11.9 ± 1.8%
- inhibition at 10 µM (HepG2 liver cancer cells): 18.6 ± 2.5%
- inhibition at 10 µM [5]: 22.3 ± 1.3%
- inhibition at 10 µM (K562 leukaemia cells): 18.2 ± 1.8%
- inhibition at 10 µM [6]: 10.1 ± 3.5%

SMILES: COc1ccc(C2CC(c3ccc(Cl)cc3Cl)=NN2c2nc(C)c(N=Nc3ccc(C)cc3)s2)cc1OC (centres unmarked) [Compound 13e, 2-(3-(2,4-Dichlorophenyl)-5-(3,4-dimethoxyphenyl)-4,5-dihydro-1H-pyrazol-1-yl)-4-methyl-5-(p-tolyldiazenyl)thiazole]
- inhibition at 10 µM (A549 lung cancer cells): 30.3 ± 2.4%
- IC50 (A549 lung cancer cells): 19.1 ± 1.3 µM
- melting point: 176 to 177 °C
- IC50 (EGFR): 67.7 ± 2 nM
- IC50 [1]: 216 ± 4.3 nM
- IC50 [2]: 87 ± 4.2 µM
- inhibition at 10 µM (H441 lung cancer cells): 46.9 ± 3.9%
- IC50 (H441 lung cancer cells): 15.2 ± 3.6 µM
- inhibition at 10 µM (KG-1a leukaemia cells): 15.2 ± 1.8%
- inhibition at 10 µM [3]: 12.5 ± 1.5%
- inhibition at 10 µM [4]: 1.8 ± 0.6%
- inhibition at 10 µM (HepG2 liver cancer cells): 0.3%
- inhibition at 10 µM [5]: 16.1 ± 0.9%
- inhibition at 10 µM (K562 leukaemia cells): 24 ± 2%
- inhibition at 10 µM [6]: 9.9 ± 0.8%

SMILES: COc1ccc(C2CC(c3ccc(Cl)cc3Cl)=NN2c2nc(C)c(N=Nc3ccc(Cl)cc3)s2)cc1OC (centres unmarked) [Compound 13f, 5-((4-Chlorophenyl)diazenyl)-2-(3-(2,4-dichlorophenyl)-5-(3,4-dimethoxyphenyl)-4,5-dihydro-1H-pyrazol-1-yl)-4-methylthiazole]
- inhibition at 10 µM (A549 lung cancer cells): 47.5 ± 3.1%
- IC50 (A549 lung cancer cells): 13.7 ± 2.2 µM
- melting point: 190 to 191 °C
- IC50 (EGFR): 107 ± 1.2 nM
- IC50 [1]: 113 ± 1.8 nM
- IC50 [2]: > 100 µM
- inhibition at 10 µM (H441 lung cancer cells): 17.3 ± 0.6%
- IC50 (H441 lung cancer cells): 24.8 ± 1.4 µM
- inhibition at 10 µM (KG-1a leukaemia cells): 20 ± 2.8%
- inhibition at 10 µM [3]: 24.6 ± 1.3%
- inhibition at 10 µM [4]: 0.8 ± 0.2%
- inhibition at 10 µM (HepG2 liver cancer cells): 0.9 ± 0.3%
- inhibition at 10 µM [5]: 6.3 ± 1%
- inhibition at 10 µM (K562 leukaemia cells): 31.5 ± 1%
- inhibition at 10 µM [6]: 0.2%

SMILES: CN(C)c1ccc(C2CC(c3c(O)c4ccccc4oc3=O)=NN2c2nc(-c3ccccc3)c(/N=N/c3ccc(Cl)cc3)s2)cc1 (centres unmarked) [Compound IV]
- IC50 (VEGFR-2): 0.034 µM

SMILES: COc1cc2ncnc(Nc3ccc(F)c(Cl)c3)c2cc1OCCCN1CCOCC1 [Gefitinib, reference compound]
- cell cycle arrest phase (A549 cells): significantly arrested the cell cycle at G1 phase
